Data set [1] can be described thus: Water solubility of delivery agent.
The conditions of data set [2]: in vivo.

`O=C(O)CCCCCCCNC(=O)c1cc(Cl)ccc1O` [5 CNAC, N-(5-chlorosalicyloyl)-8-aminocaprylic acid]: in data set [1], the water solubility entry is recorded as “very water soluble”.

`O=C(O)CCCCCCCCCNC(=O)c1ccccc1O` [SNAD, N-(10-[2-hydroxybenzoyl]amino)decanoic acid]: the “absorbed by the gastro-intestinal tract” value in data set [2] is “greater than 90%”.

For the origin of these results see patent US8748383B2, “Method for treating bone related diseases and calcium disorders” (Novartis AG, priority 2003, dated 2014).
